Test results from patent publication US9422239B1, “Dual PPAR-δ PPAR-γ agonists” (Auburn University, priority 2013, dated 2016).

How the values were obtained:
[1] = target: T1, PPARγ (AP2-PPRE) (Homo sapiens, UniProt P37231); assay: AP2-PPRE luciferase assay in HEK-293 cells; assay type: cell-based
T1 construct: expressed in transfected cells; host or cells: HEK-293
T1 sequence (P37231 1-505): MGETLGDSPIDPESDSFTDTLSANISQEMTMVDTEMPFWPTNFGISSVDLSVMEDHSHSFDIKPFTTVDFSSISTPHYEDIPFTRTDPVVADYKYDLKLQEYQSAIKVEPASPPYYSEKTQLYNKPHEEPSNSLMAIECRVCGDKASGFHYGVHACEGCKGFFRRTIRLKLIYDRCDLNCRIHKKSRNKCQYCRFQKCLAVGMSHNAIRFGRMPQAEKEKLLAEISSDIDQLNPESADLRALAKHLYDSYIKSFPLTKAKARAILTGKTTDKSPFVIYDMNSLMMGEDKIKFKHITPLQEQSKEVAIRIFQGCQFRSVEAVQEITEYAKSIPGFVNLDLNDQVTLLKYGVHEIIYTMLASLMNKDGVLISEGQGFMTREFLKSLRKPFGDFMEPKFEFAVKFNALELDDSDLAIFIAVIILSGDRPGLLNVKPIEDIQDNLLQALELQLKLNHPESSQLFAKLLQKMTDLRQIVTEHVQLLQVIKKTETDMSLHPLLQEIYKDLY
T1 sequence (P19793 1-462 partner): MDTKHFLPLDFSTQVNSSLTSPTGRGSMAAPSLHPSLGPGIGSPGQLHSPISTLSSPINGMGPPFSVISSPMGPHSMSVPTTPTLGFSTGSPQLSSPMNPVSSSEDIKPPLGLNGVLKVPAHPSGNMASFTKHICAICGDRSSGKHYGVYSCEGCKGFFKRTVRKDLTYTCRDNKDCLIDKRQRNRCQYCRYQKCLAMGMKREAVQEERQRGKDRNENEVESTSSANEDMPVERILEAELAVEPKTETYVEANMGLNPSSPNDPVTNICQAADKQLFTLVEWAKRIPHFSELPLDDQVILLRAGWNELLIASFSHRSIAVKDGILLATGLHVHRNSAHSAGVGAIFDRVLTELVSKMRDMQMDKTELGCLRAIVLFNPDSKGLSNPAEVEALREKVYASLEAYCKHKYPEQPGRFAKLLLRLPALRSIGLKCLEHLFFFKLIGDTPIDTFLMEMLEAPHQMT
Source text: (§1) To validate the specificity of the novel compounds towards activation of PPARγ/δ targets, we tested the compounds capacity to bind to select PPARγ/δ Peroxisome Proliferator Response Elements (PPRE). The PPRE are unique sites located in the promoter region where PPARs bind and transcriptionally activate the target genes. AP2-PPRE is the PPARγ target involved in adipocyte growth and differentiation. PDK4-PPRE is a PPARδ target involved in regulating energy metabolism in the cell. These PPREs were inserted into a PGL3 luciferase vectors containing CMV promoters (ADDGENE) using PCR. These vectors were co-transfected with RXR, PPARγ/PPARδ and p-galactosidase vectors into HEK-293 cells using Lipofectamine 2000 (Invitrogen). Relative light units (RLU) were measured using a Glomax Luminometer (Promega). Data were standardized to p-galactosidase activity using ONPG (Promega).

[2] = target: T2, PPARδ (PDK4-PPRE) (Homo sapiens, UniProt Q03181); assay: PDK4-PPRE luciferase assay in HEK-293 cells; assay type: cell-based
T2 construct: expressed in transfected cells; host or cells: HEK-293
T2 sequence (Q03181 1-441): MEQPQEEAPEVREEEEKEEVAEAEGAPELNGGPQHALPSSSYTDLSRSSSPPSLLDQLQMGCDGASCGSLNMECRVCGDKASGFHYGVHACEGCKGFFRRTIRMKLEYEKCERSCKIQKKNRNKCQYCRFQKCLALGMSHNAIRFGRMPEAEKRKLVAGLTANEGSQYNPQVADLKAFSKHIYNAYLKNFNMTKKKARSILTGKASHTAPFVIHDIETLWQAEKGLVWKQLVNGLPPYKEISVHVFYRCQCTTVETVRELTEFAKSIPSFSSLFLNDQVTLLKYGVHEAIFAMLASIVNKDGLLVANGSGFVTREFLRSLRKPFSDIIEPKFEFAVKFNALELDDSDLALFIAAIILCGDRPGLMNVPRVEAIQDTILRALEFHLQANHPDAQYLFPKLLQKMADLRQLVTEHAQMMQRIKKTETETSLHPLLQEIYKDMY
T2 sequence (P19793 1-462 partner): T1 sequence (P19793 1-462 partner)
Source text: as §1

[3] = tested on: 3T3-L1 adipocytes; assay: Lipid accumulation by oil red-o staining; assay type: cell-based; details: 6 days, oil red-o stain
Procedure: 3T3L1 adipocytes were cultured and treated with the novel compounds for a period of 6 days. Lipid accumulation was determined by oil red-o staining, and measured the absorbance spectrophotometrically at a wavelength of 510 nm and standardized to total protein concentrations. Data from lipid accumulation studies were compared to cells treated with rosiglitazone (a full PPARγ agonist).

[4] = tested on: C2C12 skeletal muscle cells; assay: Mitochondrial biogenesis markers by quantitative RT-PCR; assay type: cell-based; details: 4 days
Procedure: Therefore, to test the effects of the novel compounds on mitochondrial biogenesis, C2C12 skeletal muscle cells were cultured and treated with the novel compounds for 4 days. Changes associated with markers for mitochondrial biogenesis were determined by quantitative real time PCR.

[5] = tested on: PPARγ targets; assay: PPARγ target gene (mRNA) expression in hippocampi by qRT-PCR; assay type: in vivo, mice; details: 1 mg/kg orally, compared to rosiglitazone (ICV) and control
Procedure: Male C57/b16 and leptin deficient (db/db) mice were purchased from Jackson Laboratories (Bar Harbor, Me.). Animals were maintained in 12 hours of dark-light cycle. […] Both drugs were suspended in sterile saline. Four additional groups comprised the control portion of the study and received physiological saline in the place of the drug treatment either orally or by ICV. […] All treatments extended for 2 weeks.
Total RNA was isolated from hippocampi using RNAeasy Lipid Tissue Mini Kit (Qiagen, Valencia, Calif.) and was converted to cDNA (iScript cDNA synthesis kit—Bio Rad, Hercules, Calif.). Real-time PCR was performed in triplicate using a RT2 SYBR Green/Fluorescein fast master mix (SA-Bioscience) and an iCycler real-time PCR thermocycler (Bio-Rad). Gene expression was normalized to β-actin. Relative gene expression was determined by the comparative CT method (30). The data is presented as mean+/−SEM.

[6] = Accumulation in the brain after repeated dosing; assay type: in vivo, mice; details: 10 mg/kg, after 3 weeks
Procedure: Thus, a 10 mg/kg dose for 4 weeks can be administered.

[7] = Biodistribution by LC-Mass Spectral analysis; details: mice; for concentration at 4 h: mouse, po, 3 mg/kg, 3 mg/kg (table)

Cc1ccc(CNCCCN(Cc2ccc(C(=O)O)cc2)Cc2cc(C(F)(F)F)cc(C(F)(F)F)c2)cc1 [Compound 9]
Binding affinity for the AP2-PPRE ([1]; luciferase assay, HEK-293 cells, 10 μM): less binding affinity
Activation of the AP2-PPRE ([1]; transcriptional assays): minimally activates
Binding affinity for the PDK4-PPRE [2]: strong binding affinity
Lipid accumulation [3]: less lipid accumulation
Lipid accumulation ([3]; listed as compound 9): negligible effects
Cytochrome oxidase c 4-2 subunit expression [4]: significantly increased
Gene expression of mitochondrial markers [4]: increases
Activation of PPARγ targets in hippocampi (mRNA expression) [5]: selective activation of PPARγ targets
Accumulation in the brain [6]: accumulate in the brain
Detection in the brain (crosses the blood brain barrier) ([7]; oral, 4 hours): detected
concentration at 4 h ([7]; adipose, Concentration): 40.4 ng/mL
concentration at 4 h ([7]; adipose, Tissue Concentration): 15.2 ng/mL
concentration at 4 h ([7]; adipose, Tissue Distribution): 3.47 ng/mL
concentration at 4 h ([7]; blood, Concentration): 144 ng/mL
concentration at 4 h ([7]; brain, Concentration): 38.7 ng/mL
concentration at 4 h ([7]; brain, Tissue Concentration): 17.2 ng/mL
concentration at 4 h ([7]; brain, Tissue Distribution): 2.96 ng/mL
concentration at 4 h ([7]; heart, Concentration): 22.1 ng/mL
concentration at 4 h ([7]; heart, Tissue Concentration): 3.19 ng/mL
concentration at 4 h ([7]; heart, Tissue Distribution): 1.35 ng/mL
concentration at 4 h ([7]; liver, Concentration): 200 ng/mL
concentration at 4 h ([7]; liver, Tissue Concentration): 24.8 ng/mL
concentration at 4 h ([7]; liver, Tissue Distribution): 11.9 ng/mL
